Measured values reported in patent US8470776B2, “Conjugates of disorazoles and their derivatives with cell-binding molecules, novel disorazole derivatives, processes of manufacturing and uses thereof” (Aeterna Zentaris GmbH, priority 2006, dated 2013).
Values after ≈ are worked out from the molar mass of the structure shown. Values joined by “and” are separate entries in the source; they are usually repeats but may differ in a detail not shown here. Identical values can stand only once.

Assays:
[1] = system: human cervical carcinoma cell line KB/HeLa; assay: cells; assay type: cell-based; conditions: XTT, 45 h incubation
From the text: (§1) Selected compounds of the invention were investigated for their antiproliferative activity in a proliferation test on established tumor cell lines.
(§2) The test used determines the cellular dehydrogenase activity and makes possible a determination of the cell vitality and indirectly the cell count.
(§3) The cell lines used are the human cervical carcinoma cell line KB/HeLa (ATCC CCL17), the ovarian adenocarcinoma cell line SKOV-3 (ATCC HTB77), the human glioblastoma cell line SF-268 (NCI-503138) and the lung carcinoma cell line NCI-H460 (NCI-503473). In addition, for the investigation of the cell cycle-specific action of the compounds of the invention, an RKOp27 cell system was used (Schmidt M et al. Oncogene 2000, 19(20): 2423-2429). RKO is a human colon carcinoma cell line (ATCC CRL-2577), in which the cell cycle inhibitor p27^kip1 induced by means of the ecdysone expression system is expressed and can be led to a cell cycle arrest specifically in […]. A nonspecifically acting substance inhibits the proliferation independently of whether the RKO cell is or is not arrested in G1 or G2. Cell cycle-specific substances such as, for example, tubulin inhibitors are, however, only cytotoxic if cells are not arrested and the cell cycle is passed through.
(§4) The adherently growing tumor cell lines KB/HeLa, SKOV-3, SF-268 and NCI-H460 were cultured under standard conditions in an incubator at 37° C., 5% CO2 and 95% atmospheric humidity. On experimental day 1, the cells are detached using trypsin/EDTA and pelleted by centrifugation. Subsequently, the cell pellet is resuspended in the respective culture medium at the corresponding cell count and reacted in a 96-well microtiter plate. The plates are then cultured overnight in the incubator. The test substances are prepared as 1 mg/ml stock solutions in DMSO and diluted to the appropriate concentrations on experimental day 2 using culture medium. The substances in culture medium are then added to the cells and incubated in the incubator for 45 h. As a control, cells which are not treated with test substance are used. For the XTT assay, 1 mg/ml of XTT (sodium 3′-[1-(phenylaminocarbonyl)-3,4-tetrazolium]-bis(4-methoxy-6-nitro)benzenesulfonic acid) is dissolved in RPMI-1640 medium without Phenol Red. Additionally, a 0.383 mg/ml PMS (N-methyldibenzopyrazine methylsulfate) solution in phosphate-buffered saline solution (PBS) is prepared. On experimental day 4, 75 μl/well of XTT-PMS mixture is pipetted onto the cell plates which in the meantime have been incubated with the test substances for 45 h. For this, shortly before use, the XTT solution is mixed with the PMS solution in the ratio 50:1 (vol:vol). The cell plates are then incubated in the incubator for a further 3 h and the optical density (OD490 nm) is determined in a photometer. By means of the OD490 nm determined, the percentage inhibition is calculated relative to the control and plotted semilogarithmically in the form of a concentration-action curve. The IC50 is calculated by means of a regression analysis from the concentration-action curve using the program Graphpad Prism.

[2] = system: human glioblastoma cell line SF-268; assay: cells; assay type: cell-based; conditions: XTT, 45 h incubation
From the text: as §1, §2, §3, §4

[3] = system: lung carcinoma cell line NCI-H460; assay: cells; assay type: cell-based, human; conditions: XTT, 45 h incubation
From the text: as §1, §2, §3, §4

[4] = system: ovarian adenocarcinoma cell line SKOV-3; assay: cells; assay type: cell-based, human; conditions: XTT, 45 h incubation
From the text: as §1, §2, §3, §4

[5] = system: RKOp27 cells (human colon carcinoma cell line RKO), p27kip1 induced; assay: cells; assay type: cell-based; conditions: p27kip1 induced with 3 μM muristerone A, XTT, 45 h
From the text: as §3, §4
(§5) The assay is carried out in 96-well plates. […] By comparison of the activity on induced and noninduced cells, conclusions on the mechanism of action (cell cycle specificity) of the therapeutics can be drawn. […] cells are inoculated in approximately three-fold higher cell count, since division no longer takes place during the assay in comparison with uninduced cells (20000 cells/well induced, 6250 cells/well not induced). The controls are untreated cells (+/−induction). The induction is carried out with 3 μM muristerone A. On the 1st day, the cells are exposed (+/−muristerone A) and incubated at 37° C. for 24 h. On day 2, the test substance is added (control DMSO) and incubation is continued at 37° C. for a further 45 h before a standard XTT assay is carried out.

[6] = system: RKOp27 cells (human colon carcinoma cell line RKO), p27kip1 not induced; assay: cells; assay type: cell-based; conditions: without expression of p27kip1, XTT, 45 h
From the text: as §3, §4, §5

[7] = system: human GnRH receptor (hGnRH-R) positive cell line 5C6; assay: GnRH-receptor dependent proliferation assay, 5C6; assay type: cell-based; conditions: 30 min exposure, vital cells vs untreated control = 100%
Protocol: (§6) The dose-dependent receptor-mediated inhibition of cell proliferation of selected compounds of the invention was investigated.
(§7) To study these effects a human GnRH receptor (hGnRH-R) positive cell line (5C6; Beckers et al., Eur. J. Biochem. 1995, 231: 535-543) and an hGnRH-R negative cell line (LTK^−; ECACC No. 85011432) was used.
(§8) Respective cells were exposed to 1 mL culture medium in 24 well multi-titer-plates (MTPs) with a cell number of 15000 cells per well. The cell number is adjusted in such a way that after 5 days of testing the untreated control cells are still in the exponential growth phase.
(§9) Test compounds are given to the cultured cells after 4 hours of initial growth (adherence) in a volume of 100 μL to yield the final concentrations given in table 2.
(§10) After 30 min of incubation at 37° C. the entire culture medium is sucked off and the cells are washed twice with culture medium without test compounds. After the washing the cells are placed into an incubator (at 37° C., 5% CO2 and 95% atmospheric humidity) and incubated for further 4 days.
(§11) For the determination of the cell number after incubation the cells are detached using trypsin/EDTA and centrifuged. The number of vital cells and the total cell number are counted using a Vi-Cell Analyzer (Beckman Coulter).
(§12) The number of vital cells is analyzed in comparison with untreated control cells (=100%). Only cell groups (respective wells) are considered of which the total cell viability is more than 90%, i.e. inhibition of cell proliferation by unspecific toxicity can be excluded.
(§13) The proliferation status of untreated control cells after 96 hours is set to 100%.

[8] = system: hGnRH-R negative cell line LTK−; assay: GnRH-receptor dependent proliferation assay, LTK-; assay type: cell-based; conditions: 30 min exposure, vital cells vs untreated control = 100%
Protocol: as §6, §7, §8, §9, §10, §11, §12, §13

IC50 ([1]; Homo sapiens, HeLa, read-out: IC50 KB/HELA) [µg/mL]	IC50 ([2]; Homo sapiens, SF-268, read-out: IC50 SF-268) [µg/mL]	IC50 ([3]; Homo sapiens, NCI-H460, read-out: IC50 NCI-H460) [µg/mL]	IC50 ([4]; Homo sapiens, SK-OV-3, read-out: IC50 SKOV-3) [µg/mL]	IC50 ([5]; Homo sapiens, RKOp27, read-out: IC50 RKOp27 induced) [µg/mL]	IC50 ([6]; Homo sapiens, RKOp27, read-out: IC50 RKOp27) [µg/mL]	Molecule	IC50 KB/HELA [1] [µg/mL]	IC50 SF-268 [2] [µg/mL]	IC50 NCI-H460 [3] [µg/mL]	IC50 SKOV-3 [4] [µg/mL]	IC50 RKOp27 induced [5] [µg/mL]	IC50 RKOp27 [6]	proliferation status after 96 hours, cell line 5C6, 100 nM [7]	proliferation status after 96 hours, cell line LTK−, 100 nM [8]	proliferation status after 96 hours, cell line 5C6, 0.1 nM [7] [%]	proliferation status after 96 hours, cell line 5C6, 1 nM [7] [%]	proliferation status after 96 hours, cell line 5C6, 10 nM [7] [%]	proliferation status after 96 hours, cell line LTK−, 0.1 nM [8] [%]	proliferation status after 96 hours, cell line LTK−, 1 nM [8] [%]	proliferation status after 96 hours, cell line LTK−, 10 nM [8] [%]
						COc1cccc2c1C(=O)c1c(O)c3c(c(O)c1C2=O)C[C@@](O)(C(=O)COC(=O)CCCC(=O)NCCCC[C@@H](NC(=O)[C@H](Cc1ccc(O)cc1)NC(=O)[C@H](CO)NC(=O)[C@H](Cc1c[nH]c2ccccc12)NC(=O)[C@H](Cc1c[nH]cn1)NC(=O)[C@@H]1CCC(=O)N1)C(=O)N[C@@H](CC(C)C)C(=O)N[C@@H](CCCNC(=N)N)C(=O)N1CCC[C@H]1C(=O)NCC(N)=O)C[C@@H]3O[C@H]1C[C@H](N)[C@H](O)[C@H](C)O1 [AN-152, reference compound]	0.871 (≈ 0.46 µM)	1.258 (≈ 0.665 µM)	0.558 (≈ 0.295 µM)	1.238 (≈ 0.654 µM)	0.632 (≈ 0.334 µM)	0.587 µg/mL (≈ 0.31 µM)	43.9% and 42.1%	102.3% and 101.3%						
						C/C=C/[C@H](OC(=O)CCC(=O)NCCCC[C@H](NC(=O)[C@H](Cc1ccc(O)cc1)NC(=O)[C@H](CO)NC(=O)[C@H](Cc1c[nH]c2ccccc12)NC(=O)[C@H](Cc1cnc[nH]1)NC(=O)[C@@H]1CCC(=O)N1)C(=O)N[C@@H](CC(C)C)C(=O)N[C@@H](CCCNC(=N)N)C(=O)N1CCC[C@H]1C(=O)NCC(N)=O)C(C)(C)[C@@H]1C\C=C/C=C\C=C\[C@H](OC)Cc2nc(co2)C(=O)O[C@H](C(C)(C)[C@H](/C=C/C)OC(=O)CCC(=O)NCCCC[C@H](NC(=O)[C@H](Cc2ccc(O)cc2)NC(=O)[C@H](CO)NC(=O)[C@H](Cc2c[nH]c3ccccc23)NC(=O)[C@H](Cc2cnc[nH]2)NC(=O)[C@@H]2CCC(=O)N2)C(=O)N[C@@H](CC(C)C)C(=O)N[C@@H](CCCNC(=N)N)C(=O)N2CCC[C@H]2C(=O)NCC(N)=O)C/C=C\[C@H]2O[C@H]2/C=C/C=C\c2nc(co2)C(=O)O1 [compound 15, Disorazole A1 Bis Hemi Succinyl [D-Lys^6]LHRH]	>3.16	>3.16	>3.16	>3.16	>3.16	ca. 3.16 μg/ml	43.0%	101.7%	95.1	98.6	66.6	108.6	111.3	108.0
						C/C=C/C(OC(=O)CCCC(=O)NCCCC[C@H](NC(=O)[C@H](Cc1ccc(O)cc1)NC(=O)[C@H](CO)NC(=O)[C@H](Cc1c[nH]c2ccccc12)NC(=O)[C@H](Cc1cnc[nH]1)NC(=O)[C@@H]1CCC(=O)N1)C(=O)N[C@@H](CC(C)C)C(=O)N[C@@H](CCCNC(=N)N)C(=O)N1CCC[C@H]1C(=O)NCC(N)=O)C(C)(C(=O)OC)C1C\C=C/C=C/C=C/c2nc(co2)C(=O)OC(C(C)(C(=O)OC)C(/C=C/C)OC(=O)CCCC(=O)NCCCC[C@H](NC(=O)[C@H](Cc2ccc(O)cc2)NC(=O)[C@H](CO)NC(=O)[C@H](Cc2c[nH]c3ccccc23)NC(=O)[C@H](Cc2cnc[nH]2)NC(=O)[C@@H]2CCC(=O)N2)C(=O)N[C@@H](CC(C)C)C(=O)N[C@@H](CCCNC(=N)N)C(=O)N2CCC[C@H]2C(=O)NCC(N)=O)C\C=C/C=C/C=C/c2nc(co2)C(=O)O1 (stereo partly drawn) [compound 17, Disorazole Z Bis Hemi Glutaryl [D-Lys^6]LHRH]	>3.16	>3.16	>3.16	>3.16	>3.16	>3.16 µg/mL	41.7%	98.0%	95.5	85.9	58.5	100.9	99.8	98.8
0.32 (≈ 0.589 µM)	0.305 (≈ 0.561 µM)	0.105 (≈ 0.193 µM)	0.347 (≈ 0.638 µM)	0.124 (≈ 0.228 µM)	0.082 (≈ 0.151 µM)	COc1cccc2c1C(=O)c1c(O)c3c(c(O)c1C2=O)C[C@@](O)(C(=O)CO)C[C@@H]3O[C@H]1C[C@H](N)[C@H](O)[C@H](C)O1 [doxorubicin, reference compound]														
						Disorazole E1 Mono Hemi Succinyl [D-Lys^6]LHRH, Both Regio-Isomers [compounds 13/14]	0.01891	0.05566	0.0128	0.01685	>3.16	0.01724 µg/mL		27.0%				98.6	98.8	93.2
